# Laboratory results reported in patent publication US20110123483A1, “HMGB1 FOR CANCER TREATMENT” (DEUTSCHES KREBSFORSCHUNGSZENTRUM, priority 2009, published 2011).
# Legend:
# U251 MG cells [1] = assay: Subcellular fractionation and Western blot: cytochrome c release, caspase 3 cleavage; assay type: cell-based, human; conditions: rhHMGB1 80 nM, 24 h (FIG. 6)
# Method: The U251 MG tumor cells were lysed in lysis buffer containing 20 mmol/L Tris-HCl (pH 7.4), 137 mmol/L NaCl, 10% (v/v) glycerine, 1% Triton X-100, 2 mmol/L EDTA, 100 mmol/L phenylmethylsulfonyl fluoride, and protease inhibitors (Complete mini; Roche Molecular Biochemicals). For the detection of phosphoprotein levels, 10 mmol/L NaPPi, 50 mmol/L NaF, and 20 mmol/L NaVO4 were added to the lysis buffer. After 15 min incubation on ice, the lysates were centrifuged at 14,000×g for 10 min. The total protein concentration of the lysates was measured using the Bradford assay (Bio-Rad). Soluble protein (25-100 μg per lane) was separated on 10% to 15% polyacrylamide gels and blotted onto nitrocellulose by standard procedures. The membranes were washed, incubated with primary antibody as indicated: mouse anti-human caspase-3 (1:500, Imgenex, San Diego, Calif.); polyclonal rabbit anti-human phosphorylated p44/42 mitogen-activated protein kinase and polyclonal rabbit anti-human phosphorylated stress-activated protein kinase/JNK (1:1,000, Cell Signaling Technology, Inc.); polyclonal anti-rabbit JNK 54/46 (1:1,000, Cell Signaling Technology, Inc.); polyclonal rabbit anti-human IkBalpha (1:500, Santa Cruz Biotechnology, Inc.); mouse monoclonal anti-human BNIP3 (1:10,000, R&D Systems, Inc.); mouse monoclonal anti-human phosphorylated-histone H2A.X (Upstate, Inc.); mouse monoclonal anti-human cytochrome c (1:100, BD Biosciences Pharmingen GmbH, Heidelberg, Germany); mouse anti-human cytochrome c oxidase complex IV (1:100, Molecular Probes, Invitrogen, Karlsruhe, Germany); polyclonal rabbit antimalondialdehyde (1:250, Calbiochem, Merck, Darmstadt, Germany) and mouse monoclonal antibodies to β-tubulin or β-actin (1:3,000, Sigma Chemical Co., St. Louis, Mo.), washed, and incubated with the appropriate secondary antibody (1:3,000; horseradish peroxidase-conjugated, Bio-Rad). Bound antibodies were visualized using an enhanced chemiluminescence detection system (GE-Healthcare, Uppsala, Sweden).
# Enrichment of mitochondrial fractions was performed using the ApoAlert Cell Fractionation Kit (Clontech, Mountain View, Calif.) as described previously (Gdynia et al., 2008). Briefly, after centrifugation and several washing steps, the cell pellet was resuspended in ice-cold 1× Fractionation Buffer Mix containing protease inhibitors (Complete mini; Roche Molecular Biochemicals, Indianapolis, Ind.) and 1 mM 1,4-Dithio-DL-threitol solution (DTT). After 10 min incubation on ice, cells were homogenized with a dounce tissue grinder. Efficiency of homogenization was controlled by microscopy. The homogenate was centrifuged at 700×g for 10 min at 4° C. and the resulting supernatant at 10,000×g for 25 min at 4° C. […]
# NCH421 K cells = assay: Propidiumiodide (PI) uptake by FACS analysis; assay type: cell-based; conditions: 80 nM or 600 nM (FIG. 12C)
# [2] = tested on: U251MG glioblastoma cells; assay: Cytotoxicity assay, cell survival by crystal violet staining; assay type: cell-based, human
# Method: 20,000 U251MG glioblastoma cells or human astrocytic cells (ScienCell) were plated into 96-well plates. After 24 h cells were treated with rhHMGB1 (Sigma Aldrich) or rat recombinant HMGB1 (generously provided by Angelika Bierhaus, Heidelberg, Germany), and TRAIL (for 24 h) or Temozolomide (for 72 h) alone or in combination, respectively. […] Cell proliferation was assessed by seeding 50,000 U251 MG cells in 6 cm culture plates and treatment with rhHMGB1, followed by counting the cells in a Neubauer chamber at day 0, 2, 4 and 5.
# [3] = tested on: non-immortalized human astrocytic cells; assay: as above; assay type: cell-based; conditions: 72 h (FIG. 1B)
# Method: U251 glioblastoma cells and non-immortalized human astrocytic cells (ScienCell, USA) were maintained in DMEM (Life Technologies) containing 10% FCS, 4.5 g/L glucose, glutamine, 110 mg/L sodium pyruvate, and 1% penicillin-streptomycin (Life Technologies) and in astrocyte medium (ScienCell) containing 2% FBS (fetal bovine serum) and 1% penicillin-streptomycin at 37° C. and 5% CO2. For the generation of pseudo rho zero cells (0.0), U251 MG cells were treated with low dose (250 ng/ml) ethidiumbromide for 3 months. The cells were supplemented with DMEM (10% FCS, 1% P/S) containing 50 μg/ml L-pyruvate and 5 mg/ml uridine (King and Attardi, 1989).
# 20,000 U251MG glioblastoma cells or human astrocytic cells (ScienCell) were plated into 96-well plates. After 24 h cells were treated with rhHMGB1 (Sigma Aldrich) or rat recombinant HMGB1 (generously provided by Angelika Bierhaus, Heidelberg, Germany), and TRAIL (for 24 h) or Temozolomide (for 72 h) alone or in combination, respectively. Cell survival was measured by crystal violet staining as described previously (Gdynia et al., 2007). Cell proliferation was assessed by seeding 50,000 U251 MG cells in 6 cm culture plates and treatment with rhHMGB1, followed by counting the cells in a Neubauer chamber at day 0, 2, 4 and 5.
# [4] = tested on: NCH421 K glioblastoma stem-cell-like cells; assay: Trypan blue vital stain, counting blue cells in a Neubauer chamber; assay type: cell-based; conditions: 80 nM, 24 h, p<0.05
# Method: Trypan blue influx into NCH421 K glioblastoma multiforme stem-cell-like cells was […] culture flasks and then incubating them for 10 min with 1:1,000 trypan blue solution. […] Glioblastoma stem-cell-like cell line NCH421K was maintained in BIT (bovine serum albumine, insulin, transferring)-medium (DMEM HAMS F12+1% P/S+1% L-glutamin+10 ml BIT+EGF (20 ng/ml)+BFGF (20 ng/ml)).
# U251 MG cells [5] = assay: Western blot of phospho-H2A.X and BNIP3; assay type: cell-based, human; conditions: 24 h (FIG. 7)
# Method: The U251 MG tumor cells were lysed in lysis buffer containing 20 mmol/L Tris-HCl (pH 7.4), 137 mmol/L NaCl, 10% (v/v) glycerine, 1% Triton X-100, 2 mmol/L EDTA, 100 mmol/L phenylmethylsulfonyl fluoride, and protease inhibitors (Complete mini; Roche Molecular Biochemicals). For the detection of phosphoprotein levels, 10 mmol/L NaPPi, 50 mmol/L NaF, and 20 mmol/L NaVO4 were added to the lysis buffer. After 15 min incubation on ice, the lysates were centrifuged at 14,000×g for 10 min. The total protein concentration of the lysates was measured using the Bradford assay (Bio-Rad). Soluble protein (25-100 μg per lane) was separated on 10% to 15% polyacrylamide gels and blotted onto nitrocellulose by standard procedures. […]
substance,measurement,setting,value
rhHMGB1: recombinant human High Mobility Group B1 protein (Sigma Aldrich),activation of caspase 3,U251 MG cells [1],neither activation of caspase 3
same,release of cytochrome c,U251 MG cells [1],nor release of cytochrome c was observed
same,Propidiumiodide (PI) uptake compared to untreated control,NCH421 K cells,evidently increased
same,"cell death, combined treatment with TRAIL","[2]; 4 nM rhHMGB1 and TRAIL, 24 h (FIG. 1C)",strong synergistic induction of cell death
same,"cell death, combined treatment with Temozolomide","[2]; 4 nM rhHMGB1 and temozolomide, 72 h (FIG. 1C)",strong synergistic induction of cell death
same,cell death,"[2]; 80 nM, after 48 h",substantial cell death
same,susceptibility to rhHMGB1-induced cell death,[2]; 72 h (FIG. 1B),susceptible
same,susceptibility to rhHMGB1-induced cell death,[3],not human non-immortalized astrocytes were susceptible
same,trypan blue influx versus control,[4],7±1 fold increase
same,BNIP3 expression,U251 MG cells [5],not up-regulated
same,H2A.X phosphorylation,U251 MG cells [5],not observed
